Reference: patent publication US11697679B2, “Modified collagen protein and application of same” (UNIVERSITY OF TSUKUBA, priority 2017, dated 2023)

System: GFP-inserted Type V collagen α1 expression MC3T3-E1
Experiment: Fibrogenesis inhibitory experiment in stress culture in multi-well plates
Format: cell-based, mouse
Conditions: 1.0 mg/ml added when switched to stress culture; observed after 28 days; compared to wells without Pirfenidone; FIG. 18
Experimental: Normal cultivation was performed using the following materials. Cultivations using MC3T3-E1 and Balb3T3, respectively, were performed in αMEM medium containing 10% serum, and in MEM medium containing 10% serum, at 37° C. and 5% CO2. • Serum: Fetal bovine serum (Gibco) • Medium: Minimum Essential Medium Alpha (Gibco) • Medium: Minimum Essential Medium (Gibco) • Dish for culturing cells: Cell culture dish 60×15 mm (Falcon)
The following flasks were filled with medium for shaking culture. • Cell-culture flasks: 25 mL (Falcon) of Cell culture flask (12.5 cm^2 slant neck/plug seal)
The shaking culture was performed using a mini-shaker SHM-2002 (LMS) at a shaking angle of 7° and a rotational speed of 20 rpm using a sunflower shaking method.
OLYMPUS LX73 was used for fluorescent microscopy. The following filter sets were used for fluorescence imaging. • Green Fluorescence: U-EGFP (OLYMPUS), Ex: 470/20, Em: 518/45 • Red fluorescence: BrightLine®SpGold-B-000-ZERO (Semrock), Ex: 534/20, Em: 572/28 • Near Infrared Fluorescence: BrightLine®Cy5.5-B-000 (Semrock), Ex: 655/40, Em: 716/40
The GFP-inserted Type V collagen α1 expression MC3T3-E1 was cultured in multi-well plates and when switched to stress cultures capable of inducing collagen secretion, 1.0 mg/ml of Pirfenidone was added and compared to wells without such addition of Pirfenidone. […]

`Cc1ccc(=O)n(-c2ccccc2)c1` [Pirfenidone] was tested. Which “extracellular collagen fiber formation (green fluorescent fiber structures)” value did it give?
The value was “inhibited”.
